Test results: patent US20220125878A1, “Compositions and Methods for Preventing the Interaction Between SARS-COV-2 and L-Sign” (priority 2020, published 2022)

Key:
SARS-CoV-2 spike protein = molecular target: T1, SARS-CoV-2 spike protein (Severe acute respiratory syndrome coronavirus 2, UniProt P0DTC2); assay type: binding
T1 construct: host or cells: HEK293T

human L-SIGN = molecular target: T2, human L-SIGN (Homo sapiens, UniProt Q9H2X3); test: Flow cytometry of Spike/Fc binding to L-SIGN-expressing HEK293T cells; conditions: EGTA 1 mM
T2 construct: host or cells: HEK293T
T2 sequence (Q9H2X3 1-399): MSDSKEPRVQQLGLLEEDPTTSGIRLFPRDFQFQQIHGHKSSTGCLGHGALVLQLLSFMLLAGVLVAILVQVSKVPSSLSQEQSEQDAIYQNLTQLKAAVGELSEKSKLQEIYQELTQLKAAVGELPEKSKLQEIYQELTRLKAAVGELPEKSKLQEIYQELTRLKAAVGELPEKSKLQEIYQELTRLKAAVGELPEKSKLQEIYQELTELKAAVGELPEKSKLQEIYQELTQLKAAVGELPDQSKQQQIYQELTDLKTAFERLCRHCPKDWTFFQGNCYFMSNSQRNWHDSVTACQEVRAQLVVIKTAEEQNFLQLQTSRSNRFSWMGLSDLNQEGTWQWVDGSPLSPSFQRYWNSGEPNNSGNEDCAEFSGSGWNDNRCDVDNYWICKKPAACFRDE

[1] = test system: high-mannose type N-glycans on spike protein-expressing HEK293T cells; test: Flow cytometry of GNL lectin binding to spike protein-expressing HEK293T cells; assay type: cell-based; conditions: spike protein-expressing HEK293T cells treated with kifunensine 10 μM, 48 h
[2] = test system: VSVG-type pseudo-typed virus; assay type: cell-based
[3] = test system: SARS-CoV-2-type pseudo-typed virus (CoV2-type); assay type: cell-based

| Compound | inhibition of L-SIGN/Fc binding to spike protein-expressing HEK293T cells (SARS-CoV-2 spike protein) | blocking of the interaction of Spike/Fc with L-SIGN (human L-SIGN) | effect of treatment on binding of spike protein to L-SIGN/Fc (SARS-CoV-2 spike protein) | effect of treatment on binding of spike protein to GNL [1] | blocking of control VSVG-type infection (% infection efficiency) [2] | blocking of L-SIGN-mediated CoV2-type infection (% infection efficiency) [3] |
| --- | --- | --- | --- | --- | --- | --- |
| O=C(O)CN(CCOCCOCCN(CC(=O)O)CC(=O)O)CC(=O)O [EGTA] | inhibited | blocked |  |  |  |  |
| O=C1N[C@@H]2[C@@H](O)[C@@H](O)[C@H](O)[C@@H](CO)N2C1=O [Kifunensine] |  |  | enhanced | enhanced |  |  |
| mannan | inhibited |  |  |  | but not control VSVG-type infection | dose-dependently blocked |
